We go through 31 molecules from US20090226398A1, “ANTI-VIRAL COMPOUNDS, COMPOSITIONS, AND METHODS OF USE” (Genelabs Technologies, Inc., priority 2008, published 2009).

Broadly, the EC50 is the concentration giving half of the maximal effect.

In the test the test system is HCV replication. In words: Replicon Assay (Huh-lucubineo-ET cells, luciferase readout). Type of test: cell-based. The settings on record: Hepatitis C virus; ET (Huh-lucubineo-ET) HCV replicon cell line; luciferase activity 48-72 hours after compound addition; 6 dilutions. Summed up:
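Huh-lucubineo-ET cells stably carrying a firefly luciferase-ubiquitin-neo/NS3-5B ET replicon (adaptive mutations E1202G, T1280I, K1846T) were plated 24 h before compound, then treated at 5 or 50 μM or six 3-fold dilutions. Luciferase read 48-72 h later; % inhibition vs no-compound control, EC50/TC50 from Hill-equation fit.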
(In general: Replicon systems follow genome replication, usually without infectious particles.)
In turn, `COCc1ccc(-c2ccc(Cn3cc4nc(-c5cccc(F)c5F)nc-4cn3)nn2)cc1` [Compound 213, 2-(2,3-Difluoro-phenyl)-5-[6-(4-methoxymethyl-phenyl)-pyridazin-3-ylmethyl]-5H-imidazo[4,5-d]pyridazine] showed an EC50 of no less than 50000 nM.
As to `CCCOc1ccc(-c2cnc(Cn3cc4nc(-c5cccc(F)c5F)nc-4cn3)nc2)c(C(F)(F)F)c1` [Compound 266, 2-(2,3-Difluoro-phenyl)-5-[5-(4-propoxy-2-trifluoromethyl-phenyl)-pyrimidin-2-ylmethyl]-5H-imidazo[4,5-d]pyridazine], the response was half-maximal at 218 nM (EC50).
Regarding `COc1ccc(-c2ccc(Cn3cc4nc(-c5cccc(F)c5F)nc-4cn3)cn2)c(C(F)(F)F)c1` [Compound 235, 2-(2,3-Difluoro-phenyl)-5-[6-(4-methoxy-2-trifluoromethyl-phenyl)-pyridin-3-ylmethyl]-5H-imidazo[4,5-d]pyridazine], the EC50 is 10 nM.
The result for `CCCOc1ccc(-c2ncc(Cn3cc4nc(-c5cccc(F)c5F)nc-4cn3)cn2)c(C(F)(F)F)c1` [Compound 363, 2-(2,3-Difluoro-phenyl)-5-[2-(4-propoxy-2-trifluoromethyl-phenyl)-pyrimidin-5-ylmethyl]-5H-imidazo[4,5-d]pyridazine] reads 5 nM.
The result for `Fc1cccc(-c2nc3cnn(Cc4ccc(-c5ccc(OC(F)(F)F)cc5)nc4)cc-3n2)c1F` [Compound 249, 2-(2,3-Difluoro-phenyl)-5-[6-(4-trifluoromethoxy-phenyl)-pyridin-3-ylmethyl]-5H-imidazo[4,5-d]pyridazine] reads no less than 50000 nM.
The result for `Cc1ccc(-c2ccc(C(F)(F)F)cc2C(F)(F)F)c(Cn2cc3nc(-c4cccc(F)c4F)nc-3cn2)n1` [Compound 336, 5-[3-(2,4-Bis-trifluoromethyl-phenyl)-6-methyl-pyridin-2-ylmethyl]-2-(2,3-difluoro-phenyl)-5H-imidazo[4,5-d]pyridazine] reads no less than 50000 nM; that for `CC(O)COc1ccc(-c2ccc(Cn3cc4nc(-c5cccc(F)c5F)nc-4cn3)nn2)c(C(F)(F)F)c1` (stereo not shown) [Compound 319, 1-(4-{6-[2-(2,3-Difluoro-phenyl)-imidazo[4,5-d]pyridazin-5-ylmethyl]-pyridazin-3-yl}-3-trifluoromethyl-phenoxy)-propan-2-ol], 4520 nM.
For the molecule `FCCCOc1ccc(-c2ccc(Cn3cc4nc(-c5cccc(F)c5F)nc-4cn3)nn2)c(C(F)(F)F)c1` [Compound 351, 2-(2,3-Difluoro-phenyl)-5-{6-[4-(3-fluoro-propoxy)-2-trifluoromethyl-phenyl]-pyridazin-3-ylmethyl}-5H-imidazo[4,5-d]pyridazine], a half-maximal response (EC50) required 25 nM.
The figure for `Fc1cccc(-c2nc3cnn(Cc4cccc5ccccc45)cc-3n2)c1F` [Compound 292, 2-(2,3-Difluoro-phenyl)-5-naphthalen-1-ylmethyl-5H-imidazo[4,5-d]pyridazine] is no less than 50000 nM.
The result for `CCCOc1ccc(-c2cnc(Cn3cc4nc(-c5cccc(F)c5F)nc-4cn3)cn2)c(C(F)(F)F)c1` [Compound 295, 2-(2,3-Difluoro-phenyl)-5-[5-(4-propoxy-2-trifluoromethyl-phenyl)-pyrazin-2-ylmethyl]-5H-imidazo[4,5-d]pyridazine] reads 26 nM; that for `Cc1nc(-c2ccc(Cn3cc4nc(-c5cccc(F)c5F)nc-4cn3)cc2)cs1` [Compound 268, 2-(2,3-Difluoro-phenyl)-5-[4-(2-methyl-thiazol-4-yl)-benzyl]-5H-imidazo[4,5-d]pyridazine], no less than 50000 nM.
The figure for `CC(C)COc1ccc(-c2ccc(Cn3cc4nc(-c5cccc(F)c5F)nc-4cn3)nn2)c(C(F)(F)F)c1` [Compound 328, 2-(2,3-Difluoro-phenyl)-5-[6-(4-isobutoxy-2-trifluoromethyl-phenyl)-pyridazin-3-ylmethyl]-5H-imidazo[4,5-d]pyridazine] is 35 nM; for `COc1ccc(-c2cnc(Cn3cc4nc(-c5cccc(F)c5F)nc-4cn3)cn2)c(C(F)(F)F)c1` [Compound 306, 2-(2,3-Difluoro-phenyl)-5-[5-(4-methoxy-2-trifluoromethyl-phenyl)-pyrazin-2-ylmethyl]-5H-imidazo[4,5-d]pyridazine] it is 23 nM.
`CC(F)(F)COc1ccc(-c2ccc(Cn3cc4nc(-c5cccc(F)c5F)nc-4cn3)nn2)c(C(F)(F)F)c1` [Compound 231, 2-(2,3-Difluoro-phenyl)-5-{6-[4-(2,2-difluoro-propoxy)-2-trifluoromethyl-phenyl]-pyridazin-3-ylmethyl}-5H-imidazo[4,5-d]pyridazine] had a 50% effective concentration (EC50) of 164 nM.
The figure for `COc1ccc(-c2ncc(Cn3cc4nc(-c5cccc(F)c5F)nc-4cn3)cn2)c(C(F)(F)F)c1` [Compound 271, 2-(2,3-Difluoro-phenyl)-5-[2-(4-methoxy-2-trifluoromethyl-phenyl)-pyrimidin-5-ylmethyl]-5H-imidazo[4,5-d]pyridazine] is 49 nM.
The figure for `Fc1cccc(-c2nc3cnn(Cc4ccc(-c5ccc(-c6ccncc6)cc5C(F)(F)F)nn4)cc-3n2)c1F` [Compound 210, 2-(2,3-Difluoro-phenyl)-5-[6-(4-pyridin-4-yl-2-trifluoromethyl-phenyl)-pyridazin-3-ylmethyl]-5H-imidazo[4,5-d]pyridazine] is 735 nM; for `CC(C)Oc1ccc(-c2ccc(Cn3cc4nc(-c5cccc(F)c5F)nc-4cn3)nn2)cc1` [Compound 209, 2-(2,3-Difluoro-phenyl)-5-[6-(4-isopropoxy-phenyl)-pyridazin-3-ylmethyl]-5H-imidazo[4,5-d]pyridazine] it is no less than 50000 nM; for `CC(C)Cc1ccc(-c2ccc(Cn3cc4nc(-c5cccc(F)c5F)nc-4cn3)nn2)cc1` [Compound 208, 2-(2,3-Difluoro-phenyl)-5-[6-(4-isobutyl-phenyl)-pyridazin-3-ylmethyl]-5H-imidazo[4,5-d]pyridazine] it is no less than 50000 nM.
The figure for `Fc1cccc(-c2nc3cnn(CCCc4ccc(C(F)(F)F)cc4C(F)(F)F)cc-3n2)c1F` [Compound 270, 5-[3-(2,4-Bis-trifluoromethyl-phenyl)-propyl]-2-(2,3-difluoro-phenyl)-5H-imidazo[4,5-d]pyridazine] is 52500 nM; for `Fc1cccc(-c2nc3cnn(Cc4cccc(-n5cccn5)c4)cc-3n2)c1F` [Compound 291, 2-(2,3-Difluoro-phenyl)-5-(3-pyrazol-1-yl-benzyl)-5H-imidazo[4,5-d]pyridazine] it is no less than 50000 nM.
In the case of `COc1ccc(NC(=O)c2ccc(Cn3cc4nc(-c5cccc(F)c5F)nc-4cn3)cc2)cc1` [Compound 274, 4-[2-(2,3-Difluoro-phenyl)-imidazo[4,5-d]pyridazin-5-ylmethyl]-N-(4-methoxy-phenyl)-benzamide], the concentration giving a half-maximal response (EC50) was no less than 50000 nM.
For `CCCCOc1ccc(-c2ccc(Cn3cc4nc(-c5cccc(F)c5F)nc-4cn3)nn2)cc1` [Compound 223, 5-[6-(4-Butoxy-phenyl)-pyridazin-3-ylmethyl]-2-(2,3-difluoro-phenyl)-5H-imidazo[4,5-d]pyridazine], the concentration for a half-maximal effect (EC50) amounted to 49000 nM.
The figure for `Cc1ccc(-c2ccc(Cn3cc4nc(-c5cccc(F)c5F)nc-4cn3)cn2)c(C(F)(F)F)c1` [Compound 376, 2-(2,3-Difluoro-phenyl)-5-[6-(4-methyl-2-trifluoromethyl-phenyl)-pyridin-3-ylmethyl]-5H-imidazo[4,5-d]pyridazine] is 131 nM; for `CCCOc1ccc(-c2ccc(Cn3cc4nc(-c5cccc(F)c5F)nc-4cn3)cn2)c(C(F)(F)F)c1` [Compound 333, 2-(2,3-Difluoro-phenyl)-5-[6-(4-propoxy-2-trifluoromethyl-phenyl)-pyridin-3-ylmethyl]-5H-imidazo[4,5-d]pyridazine] it is 10 nM; for `CCOc1ccc(-c2ccc(Cn3cc4nc(-c5ccccc5F)nc-4cn3)cn2)c(C(F)(F)F)c1` [Compound 322, 5-[6-(4-Ethoxy-2-trifluoromethyl-phenyl)-pyridin-3-ylmethyl]-2-(2-fluoro-phenyl)-5H-imidazo[4,5-d]pyridazine] it is 33 nM.
The result for `Fc1cc(C(F)(F)F)ccc1-c1ccc(Cn2cc3nc(-c4cccc(F)c4F)nc-3cn2)cn1` [Compound 251, 2-(2,3-Difluoro-phenyl)-5-[6-(2-fluoro-4-trifluoromethyl-phenyl)-pyridin-3-ylmethyl]-5H-imidazo[4,5-d]pyridazine] reads no less than 50000 nM.
As to `COCCOc1ccc(-c2ccc(Cn3cc4nc(-c5cccc(F)c5F)nc-4cn3)nn2)c(C(F)(F)F)c1` [Compound 324, 2-(2,3-Difluoro-phenyl)-5-{6-[4-(2-methoxy-ethoxy)-2-trifluoromethyl-phenyl]-pyridazin-3-ylmethyl}-5H-imidazo[4,5-d]pyridazine], the concentration for a half-maximal effect (EC50) turned out to be 65 nM.
The figure for `Fc1cccc(-c2nc3cnn(Cc4ccc(-c5ccc(OCC6CC6)cc5C(F)(F)F)nn4)cc-3n2)c1F` [Compound 327, 5-[6-(4-Cyclopropylmethoxy-2-trifluoromethyl-phenyl)-pyridazin-3-ylmethyl]-2-(2,3-difluoro-phenyl)-5H-imidazo[4,5-d]pyridazine] is 54 nM; for `O=[N+]([O-])c1cc(Cn2cc3nc(-c4cccc(F)c4F)nc-3cn2)ccc1Br` [Compound 311, 5-(4-Bromo-3-nitro-benzyl)-2-(2,3-difluoro-phenyl)-5H-imidazo[4,5-d]pyridazine] it is 6540 nM; for `Fc1cccc(-c2nc3cnn(Cc4ccc(-c5ccc(-c6ccccn6)cc5C(F)(F)F)nn4)cc-3n2)c1F` [Compound 331, 2-(2,3-Difluoro-phenyl)-5-[6-(4-pyridin-2-yl-2-trifluoromethyl-phenyl)-pyridazin-3-ylmethyl]-5H-imidazo[4,5-d]pyridazine] it is no less than 50000 nM.
The figure for `CC(C)CCOc1ccc(-c2ccc(Cn3cc4nc(-c5cccc(F)c5F)nc-4cn3)nn2)c(C(F)(F)F)c1` [Compound 329, 2-(2,3-Difluoro-phenyl)-5-{6-[4-(3-methyl-butoxy)-2-trifluoromethyl-phenyl]-pyridazin-3-ylmethyl}-5H-imidazo[4,5-d]pyridazine] is 858 nM.
